Source: paper PMC6017454, “A Xylenol Orange-Based Screening Assay for the Substrate Specificity of Flavin-Dependent para-Phenol Oxidases” (Molecules : A Journal of Synthetic Chemistry and Natural …, 2018)

Assays:
[1] = target: T1, His-VAO (vanillyl alcohol oxidase) (Penicillium simplicissimum, UniProt P56216); assay: flavin absorption spectrum; trichloroacetic acid precipitation; type: binding; details: covalent; co-purified
T1 construct: gene VAOA; N-terminal 6xHis tag plus single Gly, tag kept; codon-optimised, E. coli BL21; covalent FAD; VAO predominantly octameric
T1 sequence (P56216 whole entry): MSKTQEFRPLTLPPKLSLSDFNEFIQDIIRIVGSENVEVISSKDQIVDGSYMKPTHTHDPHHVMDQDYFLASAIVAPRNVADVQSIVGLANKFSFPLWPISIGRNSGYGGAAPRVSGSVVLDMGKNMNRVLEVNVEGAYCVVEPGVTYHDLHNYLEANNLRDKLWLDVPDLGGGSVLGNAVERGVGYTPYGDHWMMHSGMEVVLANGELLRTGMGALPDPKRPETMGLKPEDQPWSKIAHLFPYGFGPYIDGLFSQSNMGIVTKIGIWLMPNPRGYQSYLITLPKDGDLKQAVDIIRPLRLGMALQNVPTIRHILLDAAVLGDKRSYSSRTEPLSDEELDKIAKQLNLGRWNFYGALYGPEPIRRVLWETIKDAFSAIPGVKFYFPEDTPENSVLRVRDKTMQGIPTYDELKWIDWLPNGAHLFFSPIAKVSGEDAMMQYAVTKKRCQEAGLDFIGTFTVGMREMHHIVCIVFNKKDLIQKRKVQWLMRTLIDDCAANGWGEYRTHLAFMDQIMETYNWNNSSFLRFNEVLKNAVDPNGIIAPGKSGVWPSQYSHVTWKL

[2] = target: T2, EUGO-His (eugenol oxidase) (Rhodococcus jostii, UniProt Q0SBK1); assay: as above; type: binding; details: covalent; co-purified
T2 construct: gene RHA1_ro03282; E. coli TOP10; covalent FAD; EUGO dimeric
T2 sequence (Q0SBK1 1-526): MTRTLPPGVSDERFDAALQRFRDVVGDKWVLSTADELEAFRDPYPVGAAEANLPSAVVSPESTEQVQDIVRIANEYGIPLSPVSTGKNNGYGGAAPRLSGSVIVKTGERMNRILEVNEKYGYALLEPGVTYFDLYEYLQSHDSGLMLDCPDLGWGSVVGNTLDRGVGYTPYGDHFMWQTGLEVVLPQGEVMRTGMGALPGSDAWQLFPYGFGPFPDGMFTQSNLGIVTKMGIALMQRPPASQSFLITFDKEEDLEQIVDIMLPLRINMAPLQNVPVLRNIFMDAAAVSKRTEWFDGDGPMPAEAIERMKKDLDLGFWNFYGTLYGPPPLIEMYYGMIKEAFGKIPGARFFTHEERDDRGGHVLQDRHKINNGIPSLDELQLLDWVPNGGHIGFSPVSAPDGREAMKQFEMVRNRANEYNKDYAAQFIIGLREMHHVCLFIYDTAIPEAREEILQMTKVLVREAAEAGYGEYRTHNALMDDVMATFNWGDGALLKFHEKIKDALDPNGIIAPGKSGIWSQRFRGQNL

SMILES: Cc1cc2nc3c(=O)[nH]c(=O)nc-3n(C[C@H](O)[C@H](O)[C@H](O)COP(=O)(O)OP(=O)(O)OC[C@H]3O[C@@H](n4cnc5c(N)ncnc54)[C@H](O)[C@@H]3O)c2cc1C [FAD]
- flavin absorption spectrum; trichloroacetic acid precipitation [1]: demonstrating that the flavin cofactor is covalently bound to the protein
- flavin absorption spectrum; trichloroacetic acid precipitation [2]: demonstrating that the flavin cofactor is covalently bound to the protein
